The values that follow come from US11661404B2, “Prodrug compounds activated by AKR1C3 and their use for treating hyperproliferative disorders” (priority 2018, dated 2023).

Common to all, as to assay type: cell-based, human
In series [1] the test system is wild-type H460 lung cancer cells. Briefly: Anti-proliferative IC50 assay, wild-type H460. To be noted: for IC50: Homo sapiens. The method, then:
(§1) Four hundred cells were seeded in a volume of 100 μL in each well of a 96-well plate. The cells were left in a humidified incubator (37° C., 5% CO2) for 2 hours in order to enable attachment to the surface of the wells prior to compound addition. All compounds were prepared as stocks in DMSO and stored at −80° C. Frozen stocks of compounds were thawed immediately prior to addition to cells. Working solutions of each compound were made in α-MEM+5% FBS (v/v) at 3 times the required final concentration for the top well. The final concentration of DMSO in the α-MEM solution was ensured to not exceed 1% of the total volume. 50 μL of the working solution was added to the top wells (in duplicates) and gently mixed. The solubility of some compounds precluded the working solution in α-MEM to be 3 times the desired top well concentration. […] A 3-fold serial dilution was carried out along the plate starting from the top well. The first column of wells on the plate served as blanks (containing α-MEM+FBS) and the second column served as control wells (containing cells with no compound added). Following compound addition, the plates were incubated for 4 hours in a humidified incubator (37° C., 5% CO2).
(§2) Following the 4 hour compound exposure, the 96-well plates were washed three times by aspirating media with an Immuno Washer (Nunc) and each well replaced with 150 μL of α-MEM+5% (v/v) FBS+1% (v/v) P/S. The plates were left in a humidified incubator (37° C., 5% CO2) for 5 days to enable cell growth. The cells in 96-well plates were fixed 5 days after compound exposure by adding 50 μL of a 40% (w/v) trichloroacetic acid (TCA) solution so as to obtain a final TCA concentration of 10% in each well. The plates were left in the refrigerator (4° C.) for 1 hour and subsequently rinsed 3 times in tap water. Any excess water was left to drain and the cells were stained with 50 μL of 0.4% (w/v) sulforhodamine B (SRB). The plates with the SRB stain were left in the dark for 30 minutes. Excess stain was removed from the wells by rinsing the plates 4 times in water containing 1% (v/v) acetic acid. The stain was solubilised by adding 100 μL of 10 mM unbuffered Tris (pH 10.5) to each well and the plates were left in a shaker in a dark environment at room temperature for at least 1 hour. The absorbance values of the wells were determined by an ELx 808 Absorbance Microplate Reader (Bio-Tek Instruments, Winooski, Vt., USA), with the wavelength of the measurement filter set at 490 nm and a reference filter set at 450 nm. The absorbance of the reference filter was subtracted from the measurement filter to obtain a final absorbance of λ490-450 nm. The absorbance data was analysed and IC50 values determined by the KC4 microplate data analysis software (KC4™ V3.4, Bio-Tek).
(§3) Anti-proliferative IC50 assays were repeated as described above including the addition of 3 μM SN34037, a selective and potent small molecule inhibitor of AKR1C3.
Materials and methods used are as described for Example 9.

Series [2] deals with HCT116 colon cancer cells engineered to over-express AKR1C3. Briefly: Anti-proliferative IC50 assay (SRB), HCT116 over-expressing AKR1C3. To be noted: for IC50 Ratio WT:AKR1C3: HCT116-WT vs HCT116-AKR1C3.
Series [3] deals with SNU398 hepatocellular carcinoma cells engineered to over-express AKR1C3. The series can be described thus: Anti-proliferative IC50 assay, SNU398 over-expressing AKR1C3. The note with it: for IC50: Homo sapiens. Here is the method:
as §1, §2, §3
Materials and methods used are as described for Example 9. […] This is a surprising finding and considerably greater than the approximately 77-fold, 270-fold and 400-fold increase in sensitivity observed for PR-104A, SN33540 and SN34454, respectively. In all cases, this increase in cytotoxicity resulting from expression of AKR1C3 can be substantially reversed by addition of an AKR1C3 inhibitor (SN34037), directly implicating metabolism of the prodrugs by AKR1C3 in the observed increase in cytotoxicity. As an important control, introduction of SN34037 had no anti-proliferative effects in wild-type SNU398 cells treated with compounds of the invention.

In series [4] the test system is wild-type HCT116 colon cancer cells. The series can be described thus: Anti-proliferative IC50 assay (SRB), wild-type HCT116.
Setting [5] is: NCI-H460, read-out: H460-WT +AKR1C3 Inhibitor Anti-proliferative IC50.
The mark [6] stands for this setting: NCI-H460, read-out: H460-WT Anti-proliferative IC50.
Where [7] appears, read: Homo sapiens, HCT-116, read-out: HCT116-AKR1C3 IC50.
Where [8] appears, read: read-out: HCT116-AKR1C3 + AKR1C3 Inhibitor IC50, with 3 μM SN34037.
Where [9] appears, read: SNU-398, read-out: SNU398-AKR1C3 +AKR1C3 Inhibitor Anti-proliferative IC50.
[10] abbreviates: SNU-398, read-out: SNU398-AKR1C3 Anti-proliferative IC50.
[11] abbreviates: Homo sapiens, HCT-116, read-out: HCT116-WT IC50.
The mark [12] stands for this setting: read-out: HCT116-WT + AKR1C3 Inhibitor IC50, with 3 μM SN34037.

SMILES strings stand for the structures. Where two headings read alike, the source gives them in different places.

A word on the IC50: it is the concentration that inhibits the measured activity by half. On to `CS(=O)(=O)OCCN(CCBr)c1c(C(=O)NCCO)cc([N+](=O)[O-])cc1[N+](=O)[O-]` [PR-104A, 2-((2-bromoethyl)(2-((2-hydroxyethyl)-carbamoyl)-4,6-dinitrophenyl)amino)ethyl methanesulfonate, reference compound], for which the IC50 in series [1] (setting [5]) turned out to be 50 µM; in series [1] (setting [6]) it was 2.7 µM; in series [2] (setting [7]), 1.12 µM; in series [2] (setting [8]), 41.8 µM; in series [3] (setting [9]) it was 89.9 µM; in series [3] (setting [10]), 1.16 µM. Also, the results for the IC50 in series [4] (setting [11]) and in series [4] (setting [12]) were 55.8 µM and 70.7 µM, respectively. Also, the “IC50 Ratio WT:AKR1C3” value in series [2] is given as 50.

On to `CS(=O)(=O)OCCN(CCBr)c1ccc([N+](=O)[O-])cc1S(=O)(=O)N1CCN(CC(O)CO)CC1` (stereo not shown) [Compound 605, 2-((2-bromoethyl)(2-((4-(2,3-dihydroxypropyl)piperazin-1-yl)sulfonyl)-4-nitrophenyl)amino)ethyl methanesulfonate], for which the IC50 is 7.8 µM in series [1] (setting [5]); 0.025 µM in series [1] (setting [6]); 0.009 µM in series [2] (setting [7]); 3.54 µM in series [2] (setting [8]); 10.5 µM in series [3] (setting [9]); 0.028 µM in series [3] (setting [10]). In addition, the IC50 was 6.18 µM in series [4] (setting [11]) and 6.9 µM in series [4] (setting [12]). Moreover, the “IC50 Ratio WT:AKR1C3” value in series [2] is given as 687.

`CN1CCN(C(=O)c2cc([N+](=O)[O-])ccc2N(CCBr)CCBr)CC1` [SN34118, reference compound]: the IC50 was determined as 28.9 µM in series [1] (setting [5]); 1.56 µM in series [1] (setting [6]); 0.389 µM in series [2] (setting [7]); 23.9 µM in series [2] (setting [8]); 38.2 µM in series [4] (setting [11]); 29.3 µM in series [4] (setting [12]). In addition, in series [2], the “IC50 Ratio WT:AKR1C3” value is 98.

Turning to `CN1CCN(S(=O)(=O)c2cc([N+](=O)[O-])ccc2N(CCOS(C)(=O)=O)CCOS(C)(=O)=O)CC1` [Compound 641, ((2-((4-methylpiperazin-1-yl)sulfonyl)-4-nitrophenyl)azanediyl)bis(ethane-2,1-diyl) dimethanesulfonate], the “more cytotoxic in H460 cells than SN33540” value in series [1] came to 179 fold. Moreover, the “more cytotoxic in H460 cells than SN34118” value in series [1] was 520 fold. Moreover, the “more cytotoxic in H460 cells than SN34454” value in series [1] was 135 fold. The concentration for half-maximal inhibition (IC50) in series [1] (setting [5]) worked out at 5.86 µM; in series [1] (setting [6]), 0.003 µM; in series [2] (setting [7]) it was 0.002 µM; in series [2] (setting [8]), 3.11 µM; in series [3] (setting [9]) it was 5.07 µM; in series [3] (setting [10]) it was 0.004 µM. Besides, the IC50 was found to be 5.91 µM in series [4] (setting [11]) and 6.4 µM in series [4] (setting [12]). Moreover, the “IC50 Ratio WT:AKR1C3” value in series [2] is listed as 2955.

Turning to `CN1CCN(C(=O)c2cc([N+](=O)[O-])ccc2N(CCBr)CCOS(C)(=O)=O)CC1` [SN34454, reference compound], the IC50 was 46 µM in series [1] (setting [5]), 0.406 µM in series [1] (setting [6]), 62.7 µM in series [3] (setting [9]) and 0.15 µM in series [3] (setting [10]). Moreover, in series [3] (SNU398-WT vs SNU398-AKR1C3), the “increase in sensitivity when SNU398 cells express AKR1C3” value is around 400 fold.

With `CN1CCN(S(=O)(=O)c2cc([N+](=O)[O-])ccc2N(CCBr)CCOS(C)(=O)=O)CC1` [Compound 602, 2-((2-bromoethyl)(2-((4-methylpiperazin-1-yl)sulfonyl)-4-nitrophenyl)amino)ethyl methanesulfonate], the “more cytotoxic in H460 cells than SN34454” value in series [1] is recorded as 102 fold. Moreover, the IC50 is 4.19 µM in series [1] (setting [5]); 0.004 µM in series [1] (setting [6]); 0.001 µM in series [2] (setting [7]); 1.78 µM in series [2] (setting [8]); 2.66 µM in series [3] (setting [9]); 0.003 µM in series [3] (setting [10]). For the same compound, the IC50 in series [4] (setting [11]) came to 4.26 µM; in series [4] (setting [12]) it was 4.33 µM. Further, in series [2], the “IC50 Ratio WT:AKR1C3” value came to 4260.

On to `O=[N+]([O-])c1ccc(N(CCBr)CCBr)c(S(=O)(=O)N2CCN(CC(O)CO)CC2)c1` (stereo not shown) [Compound 566, 3-(4-((2-(bis(2-bromoethyl)amino)-5-nitrophenyl)sulfonyl)piperazin-1-yl)propane-1,2-diol], for which the IC50 is 4.03 µM in series [1] (setting [5]); 0.004 µM in series [1] (setting [6]); 0.001 µM in series [2] (setting [7]); 1.72 µM in series [2] (setting [8]); 6.41 µM in series [3] (setting [9]); 0.011 µM in series [3] (setting [10]). In addition, the IC50 in series [4] (setting [11]) is 3.34 µM; in series [4] (setting [12]), 3.93 µM. Further, the “IC50 Ratio WT:AKR1C3” value in series [2] amounted to 3340.
